Measurements as given in paper PMC9774648, “Synthesis, Physicochemical Properties and Molecular Docking of New Benzothiazole Derivatives as Antimicrobial Agents Targeting DHPS Enzyme” (Antibiotics, 2022).
≈ marks a conversion by molar mass, not a printed value. Where two headings read alike, the source gives them in different places.

Assays:
S. aureus (ATCC: 6538) = test: Agar well diffusion, inhibition zone, S. aureus; format: cell-based; details: for zone of inhibition at 15000 µg/mL: Staphylococcus aureus, read-out: Diameter of the Inhibition Zone, S. aureus
S. mutans (ATCC: 25175) = test: Agar well diffusion, inhibition zone, S. mutans; format: cell-based; details: for zone of inhibition at 15000 µg/mL: Streptococcus mutans, read-out: Diameter of the Inhibition Zone, S. mutans
[1] = system: K. pneumonia (ATCC: 4415); test: Agar well diffusion, inhibition zone, K. pneumonia; format: cell-based; details: agar well diffusion, 15 mg/mL, 100 μL per well, 37 °C 24 h, mean ± SD, triplicate
[2] = system: P. aeruginosa (ATCC: 27853); test: Agar well diffusion, inhibition zone, P. aeruginosa; format: cell-based; details: agar well diffusion, 15 mg/mL, 100 μL per well, 37 °C 24 h, mean ± SD, triplicate
E. coli (ATCC: 3008) = test: Agar well diffusion, inhibition zone, E. coli; format: cell-based; details: agar well diffusion, 15 mg/mL, 100 μL per well, 37 °C 24 h, mean ± SD, triplicate
[3] = system: C. albicans (ATCC: 10231); test: Agar well diffusion, inhibition zone, C. albicans; format: cell-based; details: 15 mg/mL, 100 μL per well, mean ± SD, triplicate; for zone of inhibition at 15000 µg/mL: Candida albicans, read-out: Diameter of the Inhibition Zone, C. albicans
S. aureus = test: MIC, twofold serial dilution, S. aureus; format: cell-based; details: Staphylococcus aureus; twofold serial dilution in broth, 37 °C 16–20 h; read-out: The Minimum Inhibitory Concentration (MIC), S. aureus
Procedure: The new synthetic compounds, 6a–c, 12a–c, 14a–c, 16a–c and 19a–e, were tested in vitro to evaluate antibacterial activities against Gram-negative and Gram-positive bacteria, such as E. coli (ATCC: 3008), K. pneumonia (ATCC: 4415) and P. aeruginosa (ATCC: 27853), as an example for Gram-negative bacteria, as well as S. aureus (ATCC: 6538) and S. mutans (ATCC: 25175) for Gram-positive bacteria. The antifungal activities were evaluated also for the novel compounds in vitro against C. albicans (ATCC: 10231). The antibacterial and antifungal activities were determined by the agar-diffusion method using gentamicin, ampicillin and sulfadiazine, example of sulfa drug, as standard drugs against Gram-negative and Gram-positive, while nystatin was used as standard drug against the fungal strain. Table 1 summarizes the results for all tested compounds as the average diameter of inhibition zones of microbial growth around the discs in mm ± SD.
For each strain, three to five isolated colonies were selected from the fresh agar plate and were transferred into a tube containing 3–4 mL of sterile broth medium. The bacterial suspension was mixed well and incubated at 35–37 °C for 2–6 h. The turbidity of the bacterial suspension should be equal to or greater than the turbidity of a McFarland Standard 0.5. After that, 1 mg of the tested compound (antimicrobial agent) was dissolved in 1 mL DMSO and two-fold serial dilution was done using broth medium. A fixed volume of the prepared bacterial inoculum was added to each tube and incubated for at 37 °C 16–20 h. The MIC is defined as the lowest concentration of the antimicrobial agent that inhibits visible growth of the tested isolate as observed with the unaided eye.

[4] = molecular target: DHPS enzyme (dihydropteroate synthase) (Bacillus anthracis, UniProt Q81VW8); test: biochemical; details: for inhibition at 0.1 µg/mL: 0.1 μg/mL; for inhibition at 0.1 µg/mL / inhibition at 1 µg/mL / inhibition at 10 µg/mL / inhibition at 100 µg/mL: read-out: Inhibition % against DHPS enzyme; for inhibition at 1 µg/mL: 1 μg/mL; for inhibition at 10 µg/mL: 10 μg/mL; for inhibition at 100 µg/mL: 100 μg/mL
DHPS enzyme (dihydropteroate synthase), sequence (Q81VW8 1-280): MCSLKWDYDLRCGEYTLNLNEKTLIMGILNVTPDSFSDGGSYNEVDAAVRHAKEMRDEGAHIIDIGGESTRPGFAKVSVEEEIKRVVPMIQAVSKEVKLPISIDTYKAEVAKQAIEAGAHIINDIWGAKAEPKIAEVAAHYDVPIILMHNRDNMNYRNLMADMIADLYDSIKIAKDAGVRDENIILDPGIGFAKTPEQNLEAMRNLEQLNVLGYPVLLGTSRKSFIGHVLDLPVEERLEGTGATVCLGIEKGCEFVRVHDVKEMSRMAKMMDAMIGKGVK

S. mutans = test: MIC, twofold serial dilution, S. mutans; format: cell-based; details: Streptococcus mutans, read-out: The Minimum Inhibitory Concentration (MIC), S. mutans
[5] = agar well diffusion, 15 mg/mL, 100 μL per well, 37 °C 24 h, mean ± SD, triplicate
[6] = twofold serial dilution in broth, 37 °C 16–20 h

## Cc1ccc(N/N=C(/C(=O)NNS(=O)(=O)c2ccc(C)cc2)c2nc3ccccc3s2)cc1 [Compound 19e, N′-(2-(Benzo[d]thiazol-2-yl)-2-(2-(4-methylphenyl)hydrazono)acetyl)-4-methylbenzenesulfono-hydrazide]
S. aureus (ATCC: 6538); [5]
  Diameter of the Inhibition Zone, S. aureus: -
S. mutans (ATCC: 25175); [5]
  Diameter of the Inhibition Zone, S. mutans: -
[1]
  Diameter of the Inhibition Zone, K. pneumonia: -
[2]
  Diameter of the Inhibition Zone, P. aeruginosa: -
E. coli (ATCC: 3008)
  Diameter of the Inhibition Zone, E. coli: -
other
  melting point: 285 to 286 °C

## Cc1ccc(NC(=O)c2cc(-c3nc4ccccc4s3)c(=O)n(NS(=O)(=O)c3ccc(Cl)cc3)c2N)cc1 [Compound 6c, 2-Amino-5-(benzo[d]thiazole-2-yl)-1-(4-chlorophenylsulfonamido)-6-oxo-N-(p-tolyl)-1,6-dihydropyridine-3–carboxamide]
S. aureus (ATCC: 6538); [5]
  zone of inhibition at 15000 µg/mL: 10.6 ± 0.5 mm
S. mutans (ATCC: 25175); [5]
  zone of inhibition at 15000 µg/mL: 10.6 ± 0.5 mm
[1]
  Diameter of the Inhibition Zone, K. pneumonia: -
[2]
  Diameter of the Inhibition Zone, P. aeruginosa: -
E. coli (ATCC: 3008)
  Diameter of the Inhibition Zone, E. coli: -
other
  melting point: 302 to 305 °C

## C[C@@H]1[C@H](O)[C@@H](C)/C=C/C=C/CC/C=C/C=C/C=C/C=C/C(O[C@H]2O[C@H](C)[C@@H](O)[C@H](N)[C@@H]2O)CC2O[C@](O)(CC(O)C(O)CCC(O)CC(O)CC(O)CC(=O)O[C@H]1C)CC(O)C2C(=O)O (stereo partly drawn) [Nystatin, reference compound]
[3]
  Diameter of the Inhibition Zone, C. albicans: 21.0 ± 0.5 mm

## O=c1[nH]c(-c2ccc(Cl)cc2)ccc1-c1nc2ccccc2s1 [Compound 12a, 3-(Benzo[d]thiazol-2-yl)-6-(4-chlorophenyl)pyridin-2(1H)-one]
S. aureus (ATCC: 6538); [5]
  zone of inhibition at 15000 µg/mL: 19.6 ± 0.6 mm
S. mutans (ATCC: 25175); [5]
  Diameter of the Inhibition Zone, S. mutans: -
[1]
  Diameter of the Inhibition Zone, K. pneumonia: -
[2]
  Diameter of the Inhibition Zone, P. aeruginosa: -
E. coli (ATCC: 3008)
  Diameter of the Inhibition Zone, E. coli: -
S. aureus
  MIC: 369 µM (≈ 125 µg/mL)
[4]
  IC50: 83.6 µM
  inhibition at 0.1 µg/mL: 11%
  inhibition at 1 µg/mL: 27%
  inhibition at 10 µg/mL: 44%
  inhibition at 100 µg/mL: 58%

## Cc1ccc(/C=C(/C(=O)NNS(=O)(=O)c2ccc(C)cc2)c2nc3ccccc3s2)cc1 [Compound 14c, N-(2-(Benzo[d]thiazole-2-yl)-3-(p-tolyl)acryloyl)-4-methylbenzene-sulfonohydrazide]
S. aureus (ATCC: 6538); [5]
  zone of inhibition at 15000 µg/mL: 30.3 ± 0.6 mm
S. mutans (ATCC: 25175); [5]
  zone of inhibition at 15000 µg/mL: 20.3 ± 0.6 mm
[1]
  Diameter of the Inhibition Zone, K. pneumonia: -
[2]
  Diameter of the Inhibition Zone, P. aeruginosa: -
E. coli (ATCC: 3008)
  Diameter of the Inhibition Zone, E. coli: -
[3]
  zone of inhibition at 15000 µg/mL: 11.3 ± 0.5 mm
S. aureus
  MIC: 135 µM (≈ 62.6 µg/mL)
S. mutans; [6]
  MIC: 539 µM (≈ 250 µg/mL)
[4]
  IC50: 56.4 µM
  inhibition at 0.1 µg/mL: 8.6%
  inhibition at 1 µg/mL: 21%
  inhibition at 10 µg/mL: 46%
  inhibition at 100 µg/mL: 59%
other
  melting point: 195 to 196.5 °C

## Cc1ccc(S(=O)(=O)NNC(=O)/C(=C/c2ccc(F)cc2)c2nc3ccccc3s2)cc1 [Compound 14a]
S. aureus (ATCC: 6538); [5]
  zone of inhibition at 15000 µg/mL: 19.3 ± 0.6 mm
S. mutans (ATCC: 25175); [5]
  zone of inhibition at 15000 µg/mL: 18.3 ± 0.6 mm
[1]
  Diameter of the Inhibition Zone, K. pneumonia: -
[2]
  Diameter of the Inhibition Zone, P. aeruginosa: -
E. coli (ATCC: 3008)
  Diameter of the Inhibition Zone, E. coli: -
[3]
  zone of inhibition at 15000 µg/mL: 20.6 ± 0.6 mm
S. aureus
  MIC: 1070 µM (≈ 500 µg/mL)
S. mutans; [6]
  MIC: 2140 µM (≈ 1000 µg/mL)
other
  melting point: 201 to 202 °C

## COc1ccc(-c2ccc(-c3nc4ccccc4s3)c(=O)[nH]2)cc1 [Compound 12c, 3-(Benzo[d]thiazol-2-yl)-6-(4-methoxyphenyl)pyridin-2(1H)-one]
S. aureus (ATCC: 6538); [5]
  zone of inhibition at 15000 µg/mL: 15.6 ± 0.5 mm
S. mutans (ATCC: 25175); [5]
  zone of inhibition at 15000 µg/mL: 11.3 ± 0.5 mm
[1]
  Diameter of the Inhibition Zone, K. pneumonia: -
[2]
  Diameter of the Inhibition Zone, P. aeruginosa: -
E. coli (ATCC: 3008)
  Diameter of the Inhibition Zone, E. coli: -

## Nc1c(C(=O)Nc2ccccc2)cc(-c2nc3ccccc3s2)c(=O)n1NS(=O)(=O)c1ccc(Cl)cc1 [Compound 6a, 2-Amino-5-(benzo[d]thiazole-2-yl)-1-(4-chlorophenylsulfonamido)-6-oxo-N-phenyl-1,6-dihydropyridine-3–carboxamide]
S. aureus (ATCC: 6538); [5]
  zone of inhibition at 15000 µg/mL: 19.6 ± 0.6 mm
S. mutans (ATCC: 25175); [5]
  zone of inhibition at 15000 µg/mL: 12.3 ± 0.6 mm
[1]
  Diameter of the Inhibition Zone, K. pneumonia: ^a -
[2]
  Diameter of the Inhibition Zone, P. aeruginosa: -
E. coli (ATCC: 3008)
  Diameter of the Inhibition Zone, E. coli: -
S. aureus
  MIC: 906 µM (≈ 500 µg/mL)

## O=C(NNS(=O)(=O)c1ccccc1)C(=NNc1ccc(Cl)cc1)c1nc2ccccc2s1 [Compound 19b, N′-(2-(Benzo[d]thiazol-2-yl)-2-(2-(4-chlorophenyl)hydrazono)acetyl)benzene-sulfonohydrazide]
S. aureus (ATCC: 6538); [5]
  zone of inhibition at 15000 µg/mL: 11.6 ± 0.5 mm
S. mutans (ATCC: 25175); [5]
  Diameter of the Inhibition Zone, S. mutans: -
[1]
  Diameter of the Inhibition Zone, K. pneumonia: -
[2]
  Diameter of the Inhibition Zone, P. aeruginosa: -
E. coli (ATCC: 3008)
  Diameter of the Inhibition Zone, E. coli: -
other
  melting point: 265 to 267 °C

## O=c1[nH]c(-c2ccc(Br)cc2)ccc1-c1nc2ccccc2s1 [Compound 12b, 3-(Benzo[d]thiazol-2-yl)-6-(4-bromophenyl)pyridin-2(1H)-one]
S. aureus (ATCC: 6538); [5]
  zone of inhibition at 15000 µg/mL: 17.6 ± 0.6 mm
S. mutans (ATCC: 25175); [5]
  Diameter of the Inhibition Zone, S. mutans: -
[1]
  Diameter of the Inhibition Zone, K. pneumonia: -
[2]
  Diameter of the Inhibition Zone, P. aeruginosa: -
E. coli (ATCC: 3008)
  Diameter of the Inhibition Zone, E. coli: -
S. aureus
  MIC: 2610 µM (≈ 1000 µg/mL)
other
  melting point: 345 to 346 °C

## CC1(C)S[C@@H]2[C@H](NC(=O)[C@H](N)c3ccccc3)C(=O)N2[C@H]1C(=O)O [Ampicillin, reference compound]
S. aureus (ATCC: 6538); 24 h
  zone of inhibition at 15000 µg/mL: 22 ± 0.1 mm
S. mutans (ATCC: 25175); 24 h
  zone of inhibition at 15000 µg/mL: 30 ± 0.5 mm
S. aureus
  MIC: 179 µM (≈ 62.5 µg/mL)
S. mutans
  MIC: 179 µM (≈ 62.5 µg/mL)

## Nc1c(C(=O)Nc2ccc(Cl)cc2)cc(-c2nc3ccccc3s2)c(=O)n1NS(=O)(=O)c1ccc(Cl)cc1 [Compound 6b, 2-Amino-5-(benzo[d]thiazole-2-yl)-N-(4-chlorophenyl)-1-(4-chlorophenylsulfonamido)-6-oxo-1,6-dihydropyridine-3–carboxamide]
S. aureus (ATCC: 6538); [5]
  zone of inhibition at 15000 µg/mL: 18.3 ± 0.6 mm
S. mutans (ATCC: 25175); [5]
  zone of inhibition at 15000 µg/mL: 15.3 ± 0.5 mm
[1]
  Diameter of the Inhibition Zone, K. pneumonia: -
[2]
  Diameter of the Inhibition Zone, P. aeruginosa: -
E. coli (ATCC: 3008)
  Diameter of the Inhibition Zone, E. coli: -
S. aureus
  MIC: 1700 µM (≈ 1000 µg/mL)
S. mutans; [6]
  MIC: 1700 µM (≈ 1000 µg/mL)
other
  melting point: 334 to 336 °C

## O=C(NNS(=O)(=O)c1ccccc1)/C(=N/Nc1ccccc1)c1nc2ccccc2s1 [Compound 19a, N′-(2-(Benzo[d]thiazol-2-yl)-2-(2-phenylhydrazono)acetyl)benzenesulfono-hydrazide]
S. aureus (ATCC: 6538); [5]
  Diameter of the Inhibition Zone, S. aureus: -
S. mutans (ATCC: 25175); [5]
  Diameter of the Inhibition Zone, S. mutans: -
[1]
  Diameter of the Inhibition Zone, K. pneumonia: -
[2]
  Diameter of the Inhibition Zone, P. aeruginosa: -
E. coli (ATCC: 3008)
  Diameter of the Inhibition Zone, E. coli: -
[3]
  zone of inhibition at 15000 µg/mL: 10.3 ± 0.5 mm
other
  melting point: 246 to 248.6 °C
